Results as given in patent US7405206B2, “Anti-inflammatory androstane derivatives” (Glaxo Group Limited, priority 2001, dated 2008).
pEC50: −log10 of the molar value.

Assays:
[1] = tested on: A549 cells stably transfected with a reporter gene containing the NF-κB responsive elements from the ELAM gene promoter coupled to sPAP; assay: Functional in vitro assay of glucocorticoid agonist activity (NF-κB/ELAM-sPAP reporter, TNF stimulated); type: cell-based; settings: compound 1 hour at 37° C., then TNF 10 ng/ml for 16 hours
Protocol: Pharmacological activity was assessed in a functional in vitro assay of glucocorticoid agonist activity which is generally predictive of anti-inflammatory or anti-allergic activity in vivo.
The functional assay was based on that described by K. P. Ray et al., Biochem J. (1997), 328, 707-715. A549 cells stably transfected with a reporter gene containing the NF-κB responsive elements from the ELAM gene promoter coupled to sPAP (secreted alkaline phosphatase) were treated with test compounds at appropriate doses for 1 hour at 37° C. The cells were then stimulated with tumour necrosis factor (TNF, 10 ng/ml) for 16 hours, at which time the amount of alkaline phosphatase produced is measured by a standard colourimetric assay. Dose response curves were constructed from which EC50 values were estimated.

[2] = tested on: Male CD rats; assay: Rat model of thymus involution (systemic steroid effects); type: in vivo; settings: daily for 3 days
Protocol: Systemic steroid effects were assessed in a rat model of thymus involution. Male CD rats were dosed intra-tracheally daily for 3 days with saline vehicle (20 μl Tween 80 in 100 ml saline) or with a suspension of test compound (dose volume 200 μL). On day 4 the animals were culled and the thymus removed and weighed.

[3] = Hydrolysis in human plasma; type: in vitro ADME; settings: 37°, 5 μg/ml, LC-MS/MS
Protocol: Compounds were incubated at 37° in human plasma at a concentration of 5 μg/ml. Aliquots were taken at time 0 and every 30 seconds for the next 10 minutes and were extracted by protein precipitation and analysed by LC-MS/MS.

[4] = tested on: Balb/c mice; assay: Oxazolone induced contact hypersensitivity model (ear swelling); type: in vivo; settings: topical to right ear 1 hour prior to and 3 hours post oxazolone challenge; ear thickness 24 hours post challenge
Protocol: Pharmacological activity in vivo was assessed using an oxazolone induced contact hypersensitivity model in Balb/c mice similar to that described by Cumberbatch et al., Immunology (2002), 105, 466-477.
Balb/c female mice (18-20 g) were sensitised to oxazolone by the addition of 50 μl to the shaved right flank, of 2.5% oxazolone in acetone:olive oil (4:1). Control (unsensitised) mice were dosed with acetone:olive oil. Five days later all mice were challenged by the addition of 25 μl of 0.25% oxazolone in acetone olive oil (4:1) to the dorsal surface of both ears under isoflourane anaesthesia. 10 μl of solution of test compound at the appropriate concentration or vehicle (absolute ethanol) was applied to the dorsal surface of the right ear 1 hour prior to and 3 hours post oxazolone challenge under isoflourane anaesthesia. The left ear remained untreated to allow assessment of systemic exposure. Ear thickness measurements were taken using an engineer's micrometer prior to the addition of steroid and again 24 hours post oxazolone challenge. Results expressed as the percentage inhibition of ear swelling, from which EC50 values were calculated.

## Cc1noc(C)c1C(=O)OC1(C(=O)SC2CCOC2=O)C(C)CC2C3CC(F)C4=CC(=O)C=CC4(C)C3(F)C(O)CC21C (stereo not drawn) [Example 11, 6α,9α-Difluoro-17α-[(3,5-dimethylisoxazole-4-carbonyl)oxy]-11β-hydroxy-16α-methyl-3-oxo-androsta-1,4-diene-17β-carbothioic acid S-(2-oxo-tetrahydro-furan-3S-yl)ester]
[1]
  pEC50: 7.55

## CC1CC2C3CC(F)C4=CC(=O)C=CC4(C)C3(F)C(O)CC2(C)C1(OC(=O)c1cc(Cl)sc1Cl)C(=O)SC1CCOC1=O (stereo not drawn) [Example 15, 17α-[(2,5-Dichlorothiophene-3-carbonyl)oxy]-6α,9α-difluoro-11β-hydroxy-16α-methyl-3-oxo-androsta-1,4-diene-17β-carbothioic acid S-(2-oxo-tetrahydro-furan-3S-yl)ester]
[1]
  pEC50: 7.80

## CCCC1O[C@@H]2C[C@H]3[C@@H]4CCC5=CC(=O)C=C[C@]5(C)[C@H]4[C@@H](O)C[C@]3(C)[C@]2(C(=O)CO)O1 (stereo partly shown) [budesonide, reference compound]
[2]; 100 mg/day intra-tracheally
  reduction in thymus weight: 65%

## COc1c(C(=O)OC2(C(=O)SC3CCOC3=O)C(C)CC3C4CC(F)C5=CC(=O)C=CC5(C)C4(F)C(O)CC32C)csc1Cl (stereo not drawn) [Example 12, 17α-[(5-Chloro-4-methoxy-thiophene-3-carbonyl)oxy]-6α,9α-difluoro-11β-hydroxy-16α-methyl-3-oxo-androsta-1,4-diene-17β-carbothioic acid S-(2-oxo-tetrahydro-furan-3S-yl)ester]
[1]
  pEC50: 7.40

## C[C@@H]1C[C@H]2[C@@H]3C[C@H](F)C4=CC(=O)C=C[C@]4(C)[C@@]3(F)[C@@H](O)C[C@]2(C)[C@@]1(OC(=O)c1ccco1)C(=O)S[C@H]1CCOC1=O [Example 1, 6α,9α-Difluoro-17α-[(2-furanylcarbonyl)oxy]-11β-hydroxy-16α-methyl-3-oxo-androsta-1,4-diene-17β-carbothioic acid S-(2-oxo-tetrahydro-furan-3S-yl)ester]
[2]; 1000 μg/day intra-tracheally
  effect on thymus weight: no effect
[3]
  half-life: 1.2 min
[4]
  EC50 (inhibition of ear swelling): 0.3 µg
